Test results as given in article PMC6272684, “Synthesis, Antiproliferative and Antifungal Activities of 1,2,3-Triazole-Substituted Carnosic Acid and Carnosol Derivatives” (Molecules, 2015).

Assays:
[1] = test system: C. albicans ATCC 10231; assay: Antifungal broth microdilution (CLSI M27-A3), growth inhibition; assay type: cell-based, Candida albicans; conditions: for MIC50 (minimum concentration to inhibit 50% of fungal growth), C. albicans: C. albicans ATCC 10231
Procedure, shortened: (§1)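 Yeast inocula (1–5 × 10^3 CFU/mL) were tested by CLSI M27-A3 broth microdilution in RPMI-1640 at 250–3.9 μg∙mL^−1 (DMSO ≤1%) for 48 h at 30 °C in the dark. Growth was read at OD405, and % inhibition was calculated against growth and sterility controls in triplicate. MIC100 is total inhibition; MIC50 is 50% inhibition.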

[2] = test system: lung cancer (SK-MES-1) cells; assay: Antiproliferative assay (MTT reduction, 3 days); assay type: cell-based, human; conditions: >100 µM considered inactive, read-out: IC50 ± SD, SK-MES-1
Experimental: (§2) The antiproliferative activity towards the following human cell lines was determined: normal lung fibroblasts (MRC-5), gastric epithelial adenocarcinoma (AGS), lung cancer (SK-MES-1) and bladder carcinoma (J82) cells.
(§3) All human cell lines used in this work were purchased from the American Type Culture Collection (ATCC, Manasas, VA, USA). […] All media were supplemented with 10% heat-inactivated FBS, 100 IU∙mL^−1 penicillin and 100 µg∙mL^−1 streptomycin. Cells were grown in a humidified incubator with 5% CO2 in air at 37 °C. For the antiproliferative assay, cells were plated at a density of 5 × 10^4 cells∙mL^−1. Cells were seeded in 96-well plates (100 µL∙well^−1). One day after seeding, cells were treated with medium containing the compounds at concentrations ranging from 0 up to 100 µM during 3 days. The compounds were dissolved in DMSO (1% final concentration) and complete medium. Untreated cells (medium containing 1% DMSO) were used as 100% viability controls. […] Each concentration was tested in sextuplicate and experiments were repeated 2 times. Cell viability was determined by means of the MTT reduction assay at the end of the incubation with the products. […] The software used was OriginPro 8.1 [30].

[3] = test system: normal lung fibroblasts (MRC-5); assay: Antiproliferative assay (MTT reduction, 3 days); assay type: cell-based, human; conditions: MRC-5 normal fibroblasts, >100 µM considered inactive, read-out: IC50 ± SD, MRC-5
Experimental: as §2, §3

[4] = test system: C. neoformans ATCC 32264; assay: Antifungal broth microdilution (CLSI M27-A3), growth inhibition; assay type: cell-based, Cryptococcus neoformans; conditions: for MIC50 (minimum concentration to inhibit 50% of fungal growth), C. neoformans: C. neoformans ATCC 32264
Procedure, shortened: as §1

[5] = test system: gastric epithelial adenocarcinoma (AGS) cells; assay: Antiproliferative assay (MTT reduction, 3 days); assay type: cell-based, human; conditions: >100 µM considered inactive, read-out: IC50 ± SD, AGS
Experimental: (§4) The antiproliferative activity towards the following human cell lines was determined: normal lung fibroblasts (MRC-5), gastric epithelial adenocarcinoma (AGS), lung cancer (SK-MES-1) and bladder carcinoma (J82) cells. […] When comparing the pairs 3–4, 5–6 and 7–8 differing in one CH2 unit in the linker, the activity decreased with linker length.
(§5) All human cell lines used in this work were purchased from the American Type Culture Collection (ATCC, Manasas, VA, USA). Normal lung MRC-5 fibroblasts (CCL-171), SK-MES-1 lung cancer cells (HTB-58) and J82 bladder carcinoma cells (HTB-1) were grown as monolayers in minimum essential Eagle medium (MEM) with Earles’s salts, 2 mM L-glutamine and 1.5 g∙L^−1 sodium bicarbonate. Gastric adenocarcinoma AGS cells (CRL-1739) were grown as monolayers in Ham F-12 medium containing 1 mM L-glutamine and 1.5 g∙L^−1 sodium bicarbonate. All media were supplemented with 10% heat-inactivated FBS, 100 IU∙mL^−1 penicillin and 100 µg∙mL^−1 streptomycin. Cells were grown in a humidified incubator with 5% CO2 in air at 37 °C. For the antiproliferative assay, cells were plated at a density of 5 × 10^4 cells∙mL^−1. Cells were seeded in 96-well plates (100 µL∙well^−1). One day after seeding, cells were treated with medium containing the compounds at concentrations ranging from 0 up to 100 µM during 3 days. The compounds were dissolved in DMSO (1% final concentration) and complete medium. Untreated cells (medium containing 1% DMSO) were used as 100% viability controls. […] Each concentration was tested in sextuplicate and experiments were repeated 2 times. Cell viability was determined by means of the MTT reduction assay at the end of the incubation with the products. The results were transformed to percentage of controls and the IC50 value was obtained adjusting the dose-response curve to a sigmoidal model. The software used was OriginPro 8.1 [30].

[6] = test system: bladder carcinoma (J82) cells; assay: Antiproliferative assay (MTT reduction, 3 days); assay type: cell-based, human; conditions: J82 cells, 3 days, MTT; >100 µM considered inactive; read-out: IC50 ± SD, J82
Experimental: as §4, §5

Row | SMILES | Inhibition percentage against C. albicans ATCC 10231 ([1]; 3.9 μg∙mL^−1, 48 h) [%] | Inhibition percentage against C. albicans ATCC 10231 ([1]; 7.8 μg∙mL^−1, 48 h) [%] | Inhibition percentage against C. albicans ATCC 10231 ([1]; 15.6 μg∙mL^−1, 48 h) [%] | Inhibition percentage against C. albicans ATCC 10231 ([1]; 62.5 μg∙mL^−1, 48 h) [%] | Inhibition percentage against C. albicans ATCC 10231 ([1]; 125 μg∙mL^−1, 48 h) [%] | Inhibition percentage against C. albicans ATCC 10231 ([1]; 250 μg∙mL^−1, 48 h) [%] | Inhibition percentage against C. albicans ATCC 10231 ([1]; 31. μg∙mL^−1, 48 h) [%] | MIC50 (minimum concentration to inhibit 50% of fungal growth), C. albicans [1] [µg/mL] | IC50 [2] [µM] | IC50 [3] [µM] | Inhibition percentage against C. neoformans ATCC 32264 ([4]; 3.9 μg∙mL^−1, 48 h) [%] | Inhibition percentage against C. neoformans ATCC 32264 ([4]; 7.8 μg∙mL^−1, 48 h) [%] | Inhibition percentage against C. neoformans ATCC 32264 ([4]; 15.6 μg∙mL^−1, 48 h) [%] | Inhibition percentage against C. neoformans ATCC 32264 ([4]; 31.2 μg∙mL^−1, 48 h) [%] | Inhibition percentage against C. neoformans ATCC 32264 ([4]; 62.5 μg∙mL^−1, 48 h) [%] | Inhibition percentage against C. neoformans ATCC 32264 ([4]; 125 μg∙mL^−1, 48 h) [%] | Inhibition percentage against C. neoformans ATCC 32264 ([4]; 250 μg∙mL^−1, 48 h) [%] | MIC50 (minimum concentration to inhibit 50% of fungal growth), C. neoformans [4] [µg/mL] | IC50 [5] [µM] | IC50 [6] [µM] | other results
1 | CC(C)c1cc2c3c(c1OC(=O)CCc1cn(CSc4ccccc4)nn1)OC(=O)[C@@]31CCCC(C)(C)[C@@H]1CC2 [Compound 1, 12-O-(3-(((1-phenylthio)methyl)-1H-1,2,3-triazol-4-yl)-propanoyloxy)-11,20-epoxyabieta-8,11,13-trien-20-one] | 0.0 | 0.0 | 0.4 ± 0.2 | 3.5 ± 0.3 | 8.2 ± 0.1 | 17.1 ± 0.1 | 1.9 ± 0.3 | >250 | 81.7 ± 4.3 | 45.1 ± 2.1 | 0.0 | 0.0 | 0.0 | 3.7 ± 0.1 | 3.9 ± 0.4 | 8.9 ± 0.7 | 11.0 ± 0.5 | >250 | 39.2 ± 2.3 | > 100 | Antifungal activity against C. albicans (in words) ([1]; at the assayed concentrations (250–3.9 μg∙mL^−1)): devoid of activity
2 | CC(C)c1cc2c3c(c1OC(=O)CCCc1cn(CSc4ccccc4)nn1)OC(=O)C31CCCC(C)(C)C1CC2 (centres unmarked) [Compound 2, 12-O-(4-(((1-phenylthio)methyl)-1H-1,2,3-triazol-4-yl)-butanoyloxy)-11,20-epoxyabieta-8,11,13-trien-20-one] | 1.5 ± 0.1 | 1.9 ± 0.5 | 5.2 ± 0.6 | 15.7 ± 1.8 | 27.9 ± 1.8 | 50.7 ± 0.3 | 8.9 ± 1.8 | 250 | 76 ± 5.1 | 46.9 ± 3.4 | 1.5 ± 0.1 | 1.9 ± 0.5 | 10.3 ± 1.0 | 11.8 ± 0.3 | 20.7 ± 0.6 | 22.1 ± 1.5 | 74.8 ± 2.8 | 250 | 41 ± 2.1 | 80.1 ± 4.3 | 
